Experimental data published in patent publication US20250129104A1, “7H-PYRROLO[2,3-D]PYRIMIDINES AND PREPARATION AND USES THEREOF” (BioSplice Therapeutics, Inc., priority 2021, published 2025).

How the values were obtained:
[1] = molecular target: recombinant DYRK1A kinase (Homo sapiens (Human), UniProt Q13627); experiment: DYRK1A kinase assay (Ser/Thr 18 peptide Z-lyte FRET assay); type: biochemical; conditions: DYRK1A kinase activity; 15 μM ATP, 1 h room temperature; method text calls the value IC50
Procedure, shortened: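 Recombinant human DYRK1A (0.25 μg/mL) with 15 μM ATP and 4 μM Ser/Thr 18 peptide, 1 h at room temperature with compound (11-point, 1:3, 10 μM top, duplicate). Z-lyte development 1 h, then coumarin/fluorescein FRET emission ratio converted to % phosphorylation; IC50 by non-linear regression.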

[2] = system: Tau phosphorylation at Thr212 (pThr212); experiment: tau phosphorylation assay: phosphoTau (Thr212) AlphaLISA in HEK293T cells transfected with DYRK1A and MAPT; type: cell-based; conditions: HEK-293T; HEK293T cells transfected with human DYRK1A and MAPT; 18-24 h compound treatment; read-out: pTau (Thr212) EC50
Procedure, shortened: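 HEK293T cells transiently co-transfected with human untagged DYRK1A and MAPT (441 aa Tau), reseeded, then treated 18-24 h at 37 °C with compounds (10-point 1:3 series, 20 μM to 1.1 nM final, duplicates). Lysates probed by AlphaLISA with HT7 donor and pThr212 acceptor antibodies; EC50 from curve fit of signal.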

Row | Compound | EC50 [1] | EC50 [2]
1 | c1cc2cc(-c3c[nH]c4nc(NC5CCOCC5)ncc34)ccn2n1 [Compound 1148, 5-(Pyrazolo[1,5-a]pyridin-5-yl)-N-(tetrahydro-2H-pyran-4-yl)-7H-pyrrolo [2,3-d]pyrimidin-2-amine] | 4.2 nM | 11 nM
2 | CC(C)(F)CNc1ncc2c(-c3ccn4ncc(C(=O)N5CCCCC5)c4c3)c[nH]c2n1 [Compound 1214, (5-(2-((2-Fluoro-2-methylpropyl)amino)-7H-pyrrolo[2,3-d]pyrimidin-5-yl)pyrazolo[1,5-a]pyridin-3-yl)(piperidin-1-yl)methanone] | 9.7 nM | 219 nM
3 | CN1CCC(Nc2ncc3c(-c4ccn5ncc(C(=O)N6CCCCC6)c5c4)c[nH]c3n2)CC1 [Compound 1233, (5-(2-((1-Methylpiperidin-4-yl)amino)-7H-pyrrolo[2,3-d]pyrimidin-5-yl)pyrazolo[1,5-a]pyridin-3-yl)(piperidin-1-yl)methanone] | 18.1 nM | 116 nM
4 | O=C(NCC(F)F)c1cnn2ccc(-c3c[nH]c4nc(C5CC5)ncc34)cc12 [Compound 1249, 5-(2-Cyclopropyl-7H-pyrrolo[2,3-d]pyrimidin-5-yl)-N-(2,2-difluoroethyl) pyrazolo[1,5-a]pyridine-3-carboxamide] | 1.6 nM | 27 nM
5 | O=C(NCC(F)F)c1cnn2ccc(-c3c[nH]c4nc(C5CCC5)ncc34)cc12 [Compound 1250, 5-(2-Cyclobutyl-7H-pyrrolo[2,3-d]pyrimidin-5-yl)-N-(2,2-difluoroethyl) pyrazolo[1,5-a]pyridine-3-carboxamide] | 14.6 nM | 141 nM
6 | CC(C)(F)CNC(=O)c1cnn2ccc(-c3c[nH]c4nc(C5CC5)ncc34)cc12 [Compound 1292, 5-(2-Cyclopropyl-7H-pyrrolo[2,3-d]pyrimidin-5-yl)-N-(2-fluoro-2-methylpropyl)pyrazolo[1,5-a]pyridine-3-carboxamide] | 2.3 nM | 54 nM
7 | C[C@@H](NC(=O)c1cnn2ccc(-c3c[nH]c4nc(C5CC5)ncc34)cc12)C(F)(F)F [Compound 1335, (R)-5-(2-Cyclopropyl-7H-pyrrolo[2,3-d]pyrimidin-5-yl)-N-(1,1,1-trifluoropropan-2-yl)pyrazolo[1,5-a]pyridine-3-carboxamide] | 17.7 nM | 236 nM
8 | O=C(NC1CC(F)(F)C1)c1cnn2ccc(-c3c[nH]c4nc(C5CC5)ncc34)cc12 [Compound 1378, 5-(2-Cyclopropyl-7H-pyrrolo[2,3-d]pyrimidin-5-yl)-N-(3,3-difluorocyclobutyl)pyrazolo[1,5-a]pyridine-3-carboxamide] | 2.6 nM | 604 nM
9 | CN1CCC(NC(=O)c2cnn3ccc(-c4c[nH]c5nc(C6CCC6)ncc45)cc23)CC1 [Compound 1509, 5-(2-Cyclobutyl-7H-pyrrolo[2,3-d]pyrimidin-5-yl)-N-(1-methylpiperidin-4-yl)pyrazolo[1,5-a]pyridine-3-carboxamide] | 39.9 nM | 7020 nM
10 | CN1CCC(NC(=O)c2cnn3ccc(-c4c[nH]c5nc(NCC(C)(C)C)ncc45)cc23)CC1 [Compound 1516, N-(1-Methylpiperidin-4-yl)-5-(2-(neopentylamino)-7H-pyrrolo[2,3-d]pyrimidin-5-yl)pyrazolo[1,5-a]pyridine-3-carboxamide] | 5.8 nM | 34 nM
11 | CN1CCC(NC(=O)c2cnn3ccc(-c4c[nH]c5nc(NCC6(F)CCCCC6)ncc45)cc23)CC1 [Compound 1535, 5-(2-(((1-Fluorocyclohexyl)methyl)amino)-7H-pyrrolo[2,3-d]pyrimidin-5-yl)-N-(1-methylpiperidin-4-yl)pyrazolo[1,5-a]pyridine-3-carboxamide] | 1.2 nM | 24 nM
12 | CN1CCC(Nc2ncc3c(-c4ccn5ncc(C(=O)Nc6cccnc6)c5c4)c[nH]c3n2)CC1 [Compound 1624, 5-(2-((1-Methylpiperidin-4-yl)amino)-7H-pyrrolo[2,3-d]pyrimidin-5-yl)-N-(pyridin-3-yl)pyrazolo[1,5-a]pyridine-3-carboxamide] | 3.7 nM | 3910 nM
13 | CC(C)(F)CNc1ncc2c(-c3ccn4nccc4n3)c[nH]c2n1 [Compound 1648, N-(2-Fluoro-2-methylpropyl)-5-(pyrazolo[1,5-a]pyrimidin-5-yl)-7H-pyrrolo [2,3-d]pyrimidin-2-amine] | 3.9 nM | 152 nM
14 | CC1(CNc2ncc3c(-c4ccn5nccc5n4)c[nH]c3n2)CC1 [Compound 1658, N-((1-Methylcyclopropyl)methyl)-5-(pyrazolo[1,5-a]pyrimidin-5-yl)-7H-pyrrolo[2,3-d]pyrimidin-2-amine] | 10.5 nM | 120 nM
15 | FC(F)(F)C1(CNc2ncc3c(-c4ccn5nccc5n4)c[nH]c3n2)CC1 [Compound 1659, 5-(Pyrazolo[1,5-a]pyrimidin-5-yl)-N-((1-(trifluoromethyl)cyclopropyl)methyl)-7H-pyrrolo[2,3-d]pyrimidin-2-amine] | 19.9 nM | 141 nM
16 | FC1(CNc2ncc3c(-c4ccn5nccc5n4)c[nH]c3n2)CCC1 [Compound 1662, N-((1-Fluorocyclobutyl)methyl)-5-(pyrazolo[1,5-a]pyrimidin-5-yl)-7H-pyrrolo[2,3-d]pyrimidin-2-amine] | 13.4 nM | 103 nM
17 | CO[C@H]1CC[C@@H](Nc2ncc3c(-c4ccn5nccc5n4)c[nH]c3n2)CC1 [Compound 1664, N-(cis-4-Methoxycyclohexyl)-5-(pyrazolo[1,5-a]pyrimidin-5-yl)-7H-pyrrolo[2,3-d]pyrimidin-2-amine] | 6 nM | 56 nM
18 | CN1CCN(c2cc(Nc3ncc4c(-c5ccc6c(c5)C(C)(C)CNC6=O)c[nH]c4n3)ccn2)CC1 [Compound 1849, 4,4-Dimethyl-6-(2-((2-(4-methylpiperazin-1-yl)pyridin-4-yl)amino)-7H-pyrrolo[2,3-d]pyrimidin-5-yl)-3,4-dihydroisoquinolin-1(2H)-one] | 2.1 nM | 168 nM
19 | CO[C@H]1CC[C@@H](Nc2ncc3c(-c4ccc5ncccc5c4)c[nH]c3n2)CC1 [Compound 1885, N-(cis-4-Methoxycyclohexyl)-5-(quinolin-6-yl)-7H-pyrrolo[2,3-d]pyrimidin-2-amine] | 9 nM | 2 nM
20 | CN1CCC(Nc2ncc3c(-c4ccc5ncccc5c4)c[nH]c3n2)CC1 [Compound 1888, N-(1-Methylpiperidin-4-yl)-5-(quinolin-6-yl)-7H-pyrrolo[2,3-d]pyrimidin-2-amine] | 3.1 nM | 22 nM
21 | CC(C)(F)CNc1ncc2c(-c3ccc4nccnc4c3)c[nH]c2n1 [Compound 1913, N-(2-Fluoro-2-methylpropyl)-5-(quinoxalin-6-yl)-7H-pyrrolo[2,3-d]pyrimidin-2-amine] | 4.9 nM | 47 nM
22 | FC1(F)CCC(Nc2ncc3c(-c4ccc5nccnc5c4)c[nH]c3n2)CC1 [Compound 1928, N-(4,4-Difluorocyclohexyl)-5-(quinoxalin-6-yl)-7H-pyrrolo[2,3-d]pyrimidin-2-amine] | 3.7 nM | 111 nM
23 | CO[C@H]1CC[C@@H](Nc2ncc3c(-c4ccc5nccnc5c4)c[nH]c3n2)CC1 [Compound 1929, N-(cis-4-Methoxycyclohexyl)-5-(quinoxalin-6-yl)-7H-pyrrolo[2,3-d]pyrimidin-2-amine] | 5.3 nM | 10 nM
